Assay results reported in patent US20230391714A1, “INHIBITORS OF THE INTERACTION BETWEEN TRIP8B AND HCN CHANNELS AND USES THEREOF FOR TREATING NEUROLOGICAL DISEASES AND DISORDERS” (Northwestern University, priority 2022, published 2023).
Like-named read-outs stand apart in the source and are kept apart here.

Target: TRIP8b-HCN1c40 (Homo sapiens (Human), UniProt Q8IYB4)
Test: TRIP8b-HCN1c40 AlphaScreen assay
Format: binding
Experimental: AlphaScreen Assay. 20 nM ofGST-tagged HCNlc40 protein (corresponding to the C terminal 40 amino acids of HCN1) was incubated with 200 nM of His-tagged TRIP8b(241-602) and varying concentrations of the test compound as described in our prior report (Han et al., 2015). After a 3 h incubation, anti-GST AlphaScreen acceptor beads were added for 1.5 h followed by AlphaScreen nickel chelate donor beads for 1.5 h. AlphaScreen signal was quantified using a PerkinElmer (Waltham, MA) EnSpire multimode plate reader.

[1] = read-out: TRIP8b-HCN1c40 Alphascreen IC50
[2] = activity ranges, read-out: TRIP8b-HCN1c40 Alphascreen IC50 activity

Chain of TRIP8b-HCN1c40 (Q8IYB4 265-626): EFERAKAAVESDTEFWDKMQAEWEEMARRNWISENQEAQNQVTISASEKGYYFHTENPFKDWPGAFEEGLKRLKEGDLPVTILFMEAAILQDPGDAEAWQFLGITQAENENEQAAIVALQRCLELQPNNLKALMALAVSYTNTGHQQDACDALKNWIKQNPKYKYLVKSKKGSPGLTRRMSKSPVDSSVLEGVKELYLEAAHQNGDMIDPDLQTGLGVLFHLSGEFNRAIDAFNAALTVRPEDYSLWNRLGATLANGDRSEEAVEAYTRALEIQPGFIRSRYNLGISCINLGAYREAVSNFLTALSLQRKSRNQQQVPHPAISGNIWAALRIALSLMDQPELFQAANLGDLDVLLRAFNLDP

Structure (SMILES)	IC50 [1]	IC50 [2]
CN1CCN(Cc2cc(-c3ccc(F)cc3)ccc2OCC(=O)NC2CC2)CC1 [NUCC-0201101]	110 µM	
COc1ncc(-c2ccc(OCC(=O)NCc3ccc(Cl)cc3)c(CN3CCN(C)CC3)c2)c(OC)n1 [NUCC-0201189]	92 µM	
CN1CCN(Cc2cc(OC(F)(F)F)ccc2OCC(=O)NCc2ccc(Cl)cc2)CC1 [NUCC-0201228]	160 µM	
CN1CCN(Cc2cc(Oc3ccc(F)cc3)ccc2OCC(=O)NCc2ccc(Cl)cc2)CC1 [NUCC-0201229]	7.1 µM	5 to 10 µM
CN1CCN(Cc2cc(-c3ccc(F)cc3)ccc2OCC(=O)NCCN2CCCCC2)CC1 [NUCC-0201230]	> 200 µM	
Cc1ccc(-c2ccc(OCC(=O)NCc3ccc(S(N)(=O)=O)cc3)c(CN3CCCN(C)CC3)c2)cc1 [NUCC-0201597]	> 40 µM	
Cc1ccc(-c2ccc(OCC(=O)NCc3ccccc3)c(CN3CCCN(C)CC3)c2)cc1 [NUCC-0201598]	20 µM	10 to 20 µM
Cc1ccc(-c2ccc(OCC(=O)Nc3ccc4c(c3)OCO4)c(CN3CCCN(C)CC3)c2)cc1 [NUCC-0201600]	9.2 µM	5 to 10 µM
Cc1ccc(-c2ccc(OCC(=O)Nc3ccc(Cl)cc3)c(CN3CCC(N(C)C)CC3)c2)cc1 [NUCC-0201608]	7 µM	5 to 10 µM
Cc1ccc(-c2ccc(OCC(=O)NCc3cccc(Cl)c3)c(CN3CCC(N(C)C)CC3)c2)cc1 [NUCC-0201610]	5 µM	2 to 5 µM
Cc1ccc(-c2ccc(OCC(=O)NCc3ccc(Cl)cc3)c(CN3CCNCC3)c2)cc1 [NUCC-0201614]	7.2 µM	5 to 10 µM
CC(C)(C)c1ccc(-c2ccc(OCC(=O)NCc3ccc(Cl)cc3)c(CN3CCNCC3)c2)cc1 [NUCC-0201615]	6.3 µM	5 to 10 µM
Cc1ccc(NC(=O)COc2ccc(-c3cccc(C)c3)cc2CN2CC[C@H](N)C2)cc1 [NUCC-0201618]	8.8 µM	5 to 10 µM
COc1cc(NC(=O)COc2ccc(-c3cccc(C)c3)cc2CN2CC[C@H](N)C2)cc(OC)c1OC [NUCC-0201620]	13 µM	10 to 20 µM
Cc1cccc(-c2ccc(OCC(=O)Nc3ccc(Cl)c(Cl)c3)c(CN3CC[C@H](N)C3)c2)c1 [NUCC-0201621]	1.3 µM	1 to 2 µM
Cc1cccc(-c2ccc(OCC(=O)Nc3cccc(S(C)(=O)=O)c3)c(CN3CC[C@H](N)C3)c2)c1 [NUCC-0201622]	19 µM	10 to 20 µM
Cc1cccc(-c2ccc(OCC(=O)NCc3cccnc3)c(CN3CC[C@H](N)C3)c2)c1 [NUCC-0201626]	> 40 µM	
Cc1cccc(-c2ccc(OCC(=O)Nc3cc(O)c(O)c(O)c3)c(CN3CC[C@H](N)C3)c2)c1 [NUCC-0201628]	7.8 µM	5 to 10 µM

Structure (SMILES)	IC50 [1]	IC50 [2]
CN1CCN(Cc2cc(-c3ccc(F)c(C(F)(F)F)c3)ccc2OCC(=O)NCc2ccc(Cl)cc2)CC1 [NUCC-0201709]	2.8 µM	2 to 5 µM
CSc1ccc(-c2ccc(OCC(=O)NCc3ccc(Cl)cc3)c(CN3CCN(C)CC3)c2)cc1 [NUCC-0201710]	2.9 µM	2 to 5 µM
CN1CCN(Cc2cc(-c3ccc(C(F)(F)F)cc3)ccc2OCC(=O)NCc2ccc(Cl)cc2)CC1 [NUCC-0201711]	3.9 µM	2 to 5 µM
CN1CCN(Cc2cc(-c3ccc(CCl)cc3)ccc2OCC(=O)NCc2ccc(Cl)c(Cl)c2)CC1 [NUCC-0201971]	6.6 µM	5 to 10 µM
CN1CCN(Cc2cc(-c3ccc(Cl)c(Cl)c3)ccc2OCC(=O)NCc2ccc(Cl)cc2)CC1 [NUCC-0201973]	1.3 µM	1 to 2 µM
CN1CCN(Cc2cc(-c3ccc(Cl)cc3)ccc2OCCNS(=O)(=O)c2ccc(Cl)cc2)CC1 [NUCC-0201974]	1.8 µM	1 to 2 µM
CN1CCN(Cc2cc(-c3ccc(Cl)c(Cl)c3)ccc2OCCNS(=O)(=O)c2ccc(Cl)cc2)CC1 [NUCC-0201975]	1.7 µM	1 to 2 µM
CN1CCN(Cc2cc(-c3ccc(Cl)cc3)ccc2OCC(=O)NCc2ccc(Cl)c(Cl)c2)CC1 [NUCC-0201977]	0.87 µM	< 1 µM
CN1CCN(Cc2cc(-c3ccc(Cl)cc3Cl)ccc2OCC(=O)NCc2ccc(Cl)c(Cl)c2)CC1 [NUCC-0201978]	< 0.74 µM	< 1 µM
CN1CCN(Cc2cc(-c3cc(Cl)cc(Cl)c3)ccc2OCC(=O)NCc2ccc(Cl)c(Cl)c2)CC1 [NUCC-0201979]	< 0.74 µM	< 1 µM
CN1CCN(Cc2cc(-c3ccc(Cl)c(Cl)c3)ccc2OCC(=O)N2CCc3ccccc32)CC1 [NUCC-0201980]	1.2 µM	1 to 2 µM
CN1CCN(Cc2cc(-c3ccc(Cl)c(Cl)c3)ccc2OCC(=O)N2CCc3cc(Cl)ccc32)CC1 [NUCC-0201981]	< 0.74 µM	< 1 µM
CN1CCN(Cc2cc(-c3ccc(Cl)c(Cl)c3)ccc2OCC(=O)NCc2ccccc2Cl)CC1 [NUCC-0201983]	0.91 µM	< 1 µM
CN1CCN(Cc2cc(-c3ccc(Cl)c(Cl)c3)ccc2OCC(=O)NCc2ccc(C#N)cc2)CC1 [NUCC-0201984]	5.3 µM	
CN1CCN(Cc2cc(-c3ccc(Cl)c(Cl)c3)ccc2OCC(=O)NCc2cccc(Cl)c2)CC1 [NUCC-0201986]	1.1 µM	1 to 2 µM
CN1CCN(Cc2cc(-c3ccc(Cl)c(Cl)c3)ccc2OCC(=O)NCc2ccccc2)CC1 [NUCC-0201987]	2.5 µM	2 to 5 µM
CN1CCN(Cc2cc(-c3ccc(Cl)c(Cl)c3)ccc2OCC(=O)NC2CCc3ccccc32)CC1 (centres unmarked) [NUCC-0201988]	1.4 µM	1 to 2 µM

Results, then the compound that gave them:

IC50 [1]	IC50 [2]	Structure (SMILES)
150 µM		CCN(CC)C(=O)COc1ccc(-c2ccc(F)cc2)cc1CN1CCN(C)CC1 [NUCC-0201100]
91 µM		CN1CCN(Cc2cc(-c3ccc(F)cc3)ccc2OCC(=O)N(C)Cc2ccccc2)CC1 [NUCC-0201102]
15 µM	10 to 20 µM	CN1CCN(Cc2cc(-c3ccc(F)cc3)ccc2OCC(=O)NCc2ccc(C(F)(F)F)cc2)CC1 [NUCC-0201103]
58 µM		O=Cc1cc(-c2ccc(F)cc2)ccc1O [NUCC-0201191]
15 µM	10 to 20 µM	COc1ccc(CNC(=O)COc2ccc(-c3ccc(C)cc3)cc2CN2CCCN(C)CC2)c(OC)c1 [NUCC-0201599]
8.1 µM	5 to 10 µM	Cc1ccc(-c2ccc(OCC(=O)NCc3ccc(Cl)cc3)c(CN3CCOCC3)c2)cc1 [NUCC-0201604]
35 µM		CCN(CCO)Cc1cc(-c2ccc(C)cc2)ccc1OCC(=O)NCc1ccc(O)cc1 [NUCC-0201605]
28 µM	20 to 40 µM	Cc1ccc(-c2ccc(OCC(=O)N[C@H](C)c3ccccc3)c(CN3CCOCC3)c2)cc1 [NUCC-0201606]
5.5 µM	5 to 10 µM	Cc1ccc(-c2ccc(OCC(=O)NCc3ccc(Cl)cc3)c(CN3CCC(N(C)C)CC3)c2)cc1 [NUCC-0201607]
16 µM	10 to 20 µM	Cc1ccc(-c2ccc(OCC(=O)NCc3ccc(F)cc3)c(CN3CCC(N(C)C)CC3)c2)cc1 [NUCC-0201609]
> 40 µM		COc1ccc([C@H](C)NC(=O)COc2ccc(-c3ccc(C)cc3)cc2CN2CCC(N(C)C)CC2)cc1 [NUCC-0201611]
> 40 µM		Cc1ccc(-c2ccc(OCC(=O)NCc3cnc[nH]3)c(CN3CCC(N(C)C)CC3)c2)cc1 [NUCC-0201612]
5.7 µM	5 to 10 µM	CC(C)c1ccc(-c2ccc(OCC(=O)NCc3ccc(Cl)cc3)c(CN3CCNCC3)c2)cc1 [NUCC-0201616]
7.8 µM	5 to 10 µM	Cc1ccccc1-c1ccc(OCC(=O)NCc2ccc(Cl)cc2)c(CN2CCNCC2)c1 [NUCC-0201617]
24 µM	20 to 40 µM	COc1ccc(NC(=O)COc2ccc(-c3cccc(C)c3)cc2CN2CC[C@H](N)C2)cn1 [NUCC-0201619]
22 µM	20 to 40 µM	CNC(=O)c1ccc(NC(=O)COc2ccc(-c3cccc(C)c3)cc2CN2CC[C@H](N)C2)cc1 [NUCC-0201623]
20 µM	10 to 20 µM	Cc1cccc(-c2ccc(OCC(=O)Nc3ccc(O)cc3)c(CN3CC[C@H](N)C3)c2)c1 [NUCC-0201624]
6.1 µM	5 to 10 µM	Cc1cccc(-c2ccc(OCC(=O)NCc3ccc(Cl)cc3)c(CN3CC[C@H](N)C3)c2)c1 [NUCC-0201625]
3.1 µM	2 to 5 µM	Cc1cc(C)c(-c2ccc(OCC(=O)NCc3ccc(Cl)cc3)c(CN3CCNCC3)c2)c(C)c1 [NUCC-0201629]
< 0.74 µM		CN1CCN(Cc2cc(-c3ccc(Cl)c(Cl)c3)ccc2OCC(=O)NCc2ccc(Cl)cc2)CC1 [NUCC-0201708]
3 µM	2 to 5 µM	CN1CCN(Cc2cc(-c3ccc(Cl)cc3)ccc2OCC(=O)NCc2ccc(Cl)cc2)CC1 [NUCC-0201712]
4.7 µM	2 to 5 µM	C=Cc1ccc(-c2ccc(OCC(=O)NCc3ccc(Cl)cc3)c(CN3CCN(C)CC3)c2)cc1 [NUCC-0201713]
1.1 µM	1 to 2 µM	CN1CCN(Cc2cc(-c3c(Cl)cc(Cl)cc3Cl)ccc2OCC(=O)NCc2ccc(Cl)c(Cl)c2)CC1 [NUCC-0201969]
< 0.74 µM		CN1CCN(Cc2cc(-c3c(Cl)cc(Cl)cc3Cl)ccc2OCC(=O)NCc2ccc(Cl)cc2)CC1 [NUCC-0201970]
5 µM		CN1CCN(Cc2cc(-c3ccc(Cl)cc3)ccc2OCC(=O)NCc2ccc(Cl)cc2)CC1 [NUCC-0201972]
0.83 µM	< 1 µM	CN1CCN(Cc2cc(-c3ccc(Cl)c(Cl)c3)ccc2OCCNCc2ccc(Cl)cc2)CC1 [NUCC-0201976]
2.5 µM	2 to 5 µM	CN1CCN(Cc2cc(-c3ccc(Cl)c(Cl)c3)ccc2OCC(=O)NCc2ccc(C(F)(F)F)cc2)CC1 [NUCC-0201982]
2.5 µM	2 to 5 µM	CN1CCN(Cc2cc(-c3ccc(Cl)c(Cl)c3)ccc2OCC(=O)NCc2ccc([N+](=O)[O-])cc2)CC1 [NUCC-0201985]
